The results in this text go back to patent publication US20240228481A1, “NOVEL SULFONAMIDE SERIES OF QR2 INHIBITORS TO TACKLE OXIDATIVE STRESS AND COGNITIVE DECLINE” (CARMEL HAIFA UNIVERSITY ECONOMIC CORPORATION LTD., priority 2021, published 2024).

Where “and” joins values, the source holds several entries; their conditions need not be identical. Equal values may be shown once.

In general, IC50 refers to the concentration that gives 50% inhibition. Read a low IC50 as higher potency. For orientation: EC50 means the concentration at which the effect is half-maximal.

Data set [1] deals with T1, QR1 (NQO1) (Homo sapiens, UniProt P15559).
T1 construct: purchased Sigma-Aldrich
The experiment in a line: Selectivity assay with QR1 in place of QR2, absorbance readout. It is filed as biochemical.

Data set [2] deals with T1, QR1 (NQO1). The experiment in a line: Selectivity assay with QR1 in place of QR2, fluorescence readout. It is filed as biochemical.
Another data set relates to HEK293T cells. Put plainly: XTT cell viability assay. It is filed as cell-based. The following applies: 3 h incubation, 20 nM-20 μM. The protocol: HEK293FT cells were cultured with penicillin-streptomycin antibiotics in Invitrogen DMEM (Thermo Fisher Scientific) with 10% fetal bovine serum and L-glutamine and grown to 80-90% confluence in 100 mm plates, while being passaged every 2-3 days. For the XTT assay (Biological Industries), cells were then collected, centrifuged, and resuspended in fresh minimum essential medium, and seeded at 50,000 cells/well in 96-well, poly-L-lysine-coated Nunc black, clear flat-bottomed plates (Thermo Fisher Scientific). The next day, the cells were treated with increasing doses of QR2 inhibitors or vehicle for 3 h, and the XTT assay was then carried out as according to the manufacturer's instructions.
On the technique in general: Tetrazolium assays rely on reduction of a dye to a coloured formazan, in cell work by metabolically active cells.

The target in data set [3] is T2, QR2 (Homo sapiens, UniProt P16083).
T2 sequence (P16083 1-231): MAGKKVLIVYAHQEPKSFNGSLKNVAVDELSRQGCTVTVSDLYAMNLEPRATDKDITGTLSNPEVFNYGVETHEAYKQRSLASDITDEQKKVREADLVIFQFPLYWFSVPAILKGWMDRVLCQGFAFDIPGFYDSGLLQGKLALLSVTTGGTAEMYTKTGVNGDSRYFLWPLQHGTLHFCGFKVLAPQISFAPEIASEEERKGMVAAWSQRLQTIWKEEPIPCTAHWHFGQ
Put plainly: QR2 enzymatic activity assay (menadione/BNAH), fluorescence readout. It is filed as biochemical. More on the design: purchased Sigma-Aldrich.

The target in data set [4] is T2, QR2. The experiment in a line: Cellular thermal shift assay (CETSA) of QR2 in HEK293T cells. On the set-up: endogenous in cells; host or cells: HEK293T. It is filed as cell-based. As for the experimental part:
The CETSA assay was performed as described (Miettinen and Björklund, 2014) with some modifications. Briefly, HEK293T cells were trypsinized (Biological Industries), washed in PBS (Sigma-Aldrich), and then suspended in PBS containing protease inhibitor cocktail (Roche). The suspended cells were then divided into two Eppendorf tubes and were treated with either: a compound or DMSO (Sigma-Aldrich) for 1 h at 37° C. under shaking. Following treatment, each sample was divided into PCR tubes (100 μL/tube) and subjected to a temperature gradient (ranging from 63 to 80° C.) for 3 minutes. Cell lysates were obtained by 3-cycles of freeze-thaw using liquid nitrogen and a thermal block set to 25° C. Samples were then centrifuged at 15,000 rpm at 4° C. for 20 min and were subsequently analyzed by western blot targeting QR2 (1:100, Santa Cruz; sc-271665). The isothermal dose response fingerprint (ITDRF) experiments were done using a constant temperature of 73° C. Band intensities were normalized to the highest concentration and superoxide dismutase 1 (SOD1) levels (1:200, Santa Cruz; sc-17767). Analysis of the results were performed according to Jafari et al., (2014) using GraphPad Prism software.
To establish direct target engagement, as well as cell membrane permeability, a cellular thermal shift assay (CETSA) was carried out (see methods), using the leading compounds YB-537, YB-800, and YB-808. Following 1 h preincubation with 5 μM of each of the compounds, or vehicle, thermal aggregation curves (Tagg) of QR2 expressed in HEK293T were measured in increasing temperatures. […] Based on the Tagg curves, the inventors selected 73° C. for isothermal dose-response fingerprint (IDTRF) experiments (FIG. 2B).

Data set [5] is described as follows: Cell toxicity assay (ATP depletion, CellTiter Glo). The following applies: human. Background: Cellular ATP, detected with luciferase, serves as a proxy for viable cell number.
Method: (§1) THLE-2 (CRL-2706™) were grown in the BEGM Bullet Kit (CC-3170) from Lonza. Besides the additives contained in the kit, the medium was further supplemented with 5 ng/mL EGF (Sigma), 70 ng/mL phosphoethanolamine (Sigma) and 10% FBS (Biological Industries). The plates for the THLE-2 needed to be pre-coated with a mixture of 0.01 mg/mL fibronectin, 0.05 mg/mL of PureCol™ EZ Gel Solution (Sigma) and 0.01 mg/mL of BSA dissolved in BEBM medium (Lonza). The coating medium was aspirated before seeding.
(§2) THLE-2 cells were exposed to the compounds in a 9-point, 2-fold dilution dose response series with a 100 μM as upper limit, for 72 h. Following the 72 h of exposure to the test compounds, cell viability was determined by measuring the concentration of cellular ATP (CellTiter Glo, Promega). The luminescence signal was measured on a Pherastar FS multi-mode plate reader (BMG Labtech). Each data point was tested in a triplicate.
(§3) First, toxicity was assessed in an ATP depletion assay, using THLE-2 cells following a 72 h exposure to a dose response of each of the tested compounds.
For a further data set, the system named is THLE-2 cells. Put plainly: Cell toxicity assay (ATP depletion, CellTiter Glo). To be noted: 72 h incubation, CellTiter Glo.

T1 sequence (P15559 whole entry): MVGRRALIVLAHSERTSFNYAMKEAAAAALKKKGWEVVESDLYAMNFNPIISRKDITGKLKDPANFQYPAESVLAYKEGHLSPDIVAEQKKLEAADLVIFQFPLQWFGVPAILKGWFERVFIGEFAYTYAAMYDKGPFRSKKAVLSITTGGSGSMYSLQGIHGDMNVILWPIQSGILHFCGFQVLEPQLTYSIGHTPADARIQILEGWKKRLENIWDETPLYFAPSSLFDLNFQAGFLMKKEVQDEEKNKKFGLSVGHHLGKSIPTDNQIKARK
Method for THLE-2 cells: as §1, §2, §3

For the compound `Cc1ccc(-c2cn3cccc(C)c3n2)cc1S(=O)(=O)N1CCCC1` [YB-808], the IC50 on QR1 (NQO1) [1] is more than 9.99 µM; against QR1 (NQO1) [2], more than 9.99 µM; against QR2 [3], 0.01 µM. The “toxicity in XTT assay” value in the data set with HEK293T cells is listed as “no toxicity”. In addition, the “thermal stability of QR2 (thermal aggregation curve) versus vehicle” value at QR2 [4] (5 μM, 1 h preincubation) was “shifts of thermal stability”. For the same compound, the EC50 on QR2 [4] (CETSA at 73° C., read-out: EC50 of QR2 stabilization (isothermal dose-response fingerprint)) was determined as 0.013 µM. In addition, in data set [5], the midpoint of inhibition, the IC50 at 72 h, lay at 59.7 µM. Also, the “median lethal dose (LD50) in THLE cells” value in the data set on THLE-2 cells is 59.7 µM and 59.704 µM.
